# Patent US20170150719A1, “FUNGICIDAL PYRAZOLES AND THEIR MIXTURES” (E I DU PONT DE NEMOURS AND COMPANY, priority 2010, published 2017)
# Marks after values point to notes of the source that are not given here.
# Experiments:
# Septoria tritici = assay: Test F: wheat leaf blotch, preventive spray on wheat seedlings, visual disease rating; assay type: in vivo; set-up: Test F rating (disease control), value marked *: concentration or dose not given beside the values; conditions: for Test F rating (disease control) / Test F rating (% disease control) / pest or weed control at 200 µg/mL: 100 = 100% disease control; for Test F rating (disease control) / pest or weed control at 200 µg/mL: 0 = no disease control relative to the controls; for Test F rating (% disease control): preventive spray, rating without asterisk; for Test F rating (disease control), value marked *: rating marked with asterisk (*), other test condition, not explained in the text shown; for pest or weed control at 200 µg/mL: Zymoseptoria tritici
# From the text: (§1) A hyphen (-) indicates no test results.
# [1] = test system: Puccinia recondita f. sp. tritici; assay: Test G: wheat leaf rust, spray after inoculation (curative) on wheat seedlings, visual disease rating; assay type: in vivo; conditions: 100 = 100% disease control; for Test G rating (disease control) / pest or weed control at 200 µg/mL: sprayed after inoculation, 0 = no disease control; for Test G rating (% disease control): spray after inoculation, rating without asterisk
# From the text: as §1
# [2] = test system: Puccinia recondita f. sp. tritici; assay: Test H: wheat leaf rust, preventive spray on wheat seedlings, visual disease rating; conditions: 100 = 100% disease control; for Test H rating (disease control) / Test H rating (% disease control): wheat leaf rust; for Test H rating (disease control): sprayed the day before inoculation; for Test H rating (disease control) / pest or weed control at 200 µg/mL: 0 = no disease control; for Test H rating (% disease control): preventive spray, rating without asterisk; for pest or weed control at 200 µg/mL: read-out: Test H rating (disease control), wheat leaf rust, sprayed the day before inoculation
# Botrytis cinerea = assay: Test A: tomato Botrytis, preventive spray on tomato seedlings, visual disease rating; conditions: 100 = 100% disease control; for Test A rating (disease control) / Test A rating (% disease control): tomato Botrytis; for Test A rating (disease control) / pest or weed control at 200 µg/mL: 0 = no disease control relative to the controls; for Test A rating (% disease control): preventive spray, 0 = no control relative to controls, rating without asterisk; for pest or weed control at 200 µg/mL: Botrytis cinerea, in Solanum lycopersicum, read-out: Test A rating (disease control), tomato Botrytis
# Alternaria solani = assay: Test B: tomato early blight, preventive spray on tomato seedlings, visual disease rating; conditions: for Test B rating (disease control) / Test B rating (% disease control): tomato early blight, 100 = 100% disease control; for Test B rating (disease control): 0 = no disease control relative to the controls; for Test B rating (% disease control): preventive spray, rating without asterisk; for pest or weed control at 200 µg/mL: Alternaria solani, in Solanum lycopersicum, read-out: Test B rating (disease control)
# [3] = test system: Blumeria graminis f. sp. tritici; assay: Test I: wheat powdery mildew, preventive spray on wheat seedlings, visual disease rating; conditions: for Test I rating (% disease control): preventive spray, rating without asterisk; for Test I rating (% disease control) / Test I rating (disease control) / pest or weed control at 200 µg/mL: 100 = 100% disease control; for Test I rating (disease control) / pest or weed control at 200 µg/mL: 0 = no disease control relative to the controls; for pest or weed control at 200 µg/mL: Blumeria graminis, in Triticum aestivum, read-out: Test I rating (disease control), wheat powdery mildew
# Septoria nodorum = assay: Test E: Septoria glume blotch, preventive spray on wheat seedlings, visual disease rating; conditions: 100 = 100% disease control; for Test E rating (disease control): Septoria glume blotch; for Test E rating (disease control) / pest or weed control at 200 µg/mL: 0 = no disease control relative to the controls; for Test E rating (% disease control): Septoria glume blotch on wheat, preventive spray, rating without asterisk; for pest or weed control at 200 µg/mL: Parastagonospora nodorum, in Triticum aestivum, read-out: Test E rating (disease control), Septoria glume blotch
SMILES,Test F rating (disease control) (Septoria tritici) [%],Test G rating (disease control) [1] [%],Test H rating (disease control) [2] [%],Test A rating (disease control) (Botrytis cinerea) [%],Test B rating (disease control) (Alternaria solani) [%],Test E rating (disease control) (Septoria nodorum) [%],Test I rating (disease control) ([3]; wheat powdery mildew) [%],further results
Cc1nn(C)c(Nc2c(Cl)cc(Cl)cc2Cl)c1-c1ccc(F)cc1Br [compound 174],100,0,99,95,0,0,–,"Test I rating (disease control), value marked * ([3]; wheat powdery mildew, rating marked with asterisk (*), not explained in the text shown): 99* %"
Cc1nn(C)c(Nc2c(F)cc(F)cc2I)c1-c1ccc(F)cc1F [compound 214],–,–,–,–,–,–,–,Test F rating (% disease control) (Septoria tritici): 100%; Test G rating (% disease control) [1]: 99%; Test H rating (% disease control) [2]: 99%; Test A rating (% disease control) (Botrytis cinerea): 100%; Test B rating (% disease control) (Alternaria solani): 100%; Test I rating (% disease control) ([3]; wheat powdery mildew): 100%; Test E rating (% disease control) (Septoria nodorum): 99%
COc1cc(F)c(-c2c(C)nn(C)c2Oc2c(F)cc(C#N)cc2F)c(F)c1 [compound 38],99,0,96,99,94,87,97,–
Cc1nn(C)c(Nc2c(Cl)cc(Cl)cc2Cl)c1-c1ccc(F)cc1Cl [compound 170],100,79,98,65,0,0,79,–
Cc1nn(C)c(Nc2c(F)cc(Cl)cc2Cl)c1-c1ccc(Cl)cc1F [compound 231],–,–,–,–,–,–,–,Test F rating (% disease control) (Septoria tritici): 100%; Test G rating (% disease control) [1]: 9%; Test H rating (% disease control) [2]: 94%; Test A rating (% disease control) (Botrytis cinerea): 33%; Test B rating (% disease control) (Alternaria solani): 58%; Test I rating (% disease control) ([3]; wheat powdery mildew): 99%; Test E rating (% disease control) (Septoria nodorum): 0%
CCOc1ccc(-c2c(C)nn(C)c2Nc2c(F)cc(F)cc2Cl)c(Cl)c1 [compound 206],–,–,–,–,–,–,–,Test F rating (% disease control) (Septoria tritici): 100%; Test G rating (% disease control) [1]: 0%; Test H rating (% disease control) [2]: 99%; Test A rating (% disease control) (Botrytis cinerea): 99%; Test B rating (% disease control) (Alternaria solani): 100%; Test I rating (% disease control) ([3]; wheat powdery mildew): 100%; Test E rating (% disease control) (Septoria nodorum): 99%
Cc1nn(C)c(Oc2ccc(Cl)cc2Cl)c1-c1c(F)cc(F)cc1F [compound 9],97,0,99,99,9,0,99,–
Cc1nn(C)c(Oc2ccc(C#N)cc2F)c1-c1c(F)cccc1Cl [compound 116],100,0,100,100,33,99,100,–
COc1ccc(-c2c(C)nn(C)c2Nc2ccc(Cl)cc2Cl)c(Cl)c1 [compound 77],–,0,99,99,98,0,100,"Test F rating (disease control), value marked * (Septoria tritici): 99* %"
COc1cc(F)c(-c2c(C)nn(C)c2Oc2c(F)cc(Br)cc2F)c(F)c1 [compound 24],100,0,98,99,95,84,100,–
COc1cc(F)c(Nc2c(-c3c(F)cccc3F)c(C)nn2C)c(F)c1 [compound 72],100,0,97,100,99,0,98,–
COc1ccc(-c2c(C)nn(C)c2Nc2c(F)cccc2F)c(Cl)c1 [compound 43],100,95,100,98,100,0,98,–
"Cc1nn(C)c(Nc2c(F)cc(Cl)cc2Cl)c1-c1ccc(F)cc1F [Compound 141, N-(2,4-dichloro-6-fluorophenyl)-4-(2,4-difluorophenyl)-1,3-dimethyl-1H-pyrazol-5-amine]",–,–,–,–,–,–,–,pest or weed control at 200 µg/mL (Septoria tritici): 100%; pest or weed control at 200 µg/mL [1]: 97%; pest or weed control at 200 µg/mL [2]: 100%; pest or weed control at 200 µg/mL (Botrytis cinerea): 99%; pest or weed control at 200 µg/mL (Alternaria solani): 99%; pest or weed control at 200 µg/mL [3]: 100%; pest or weed control at 200 µg/mL (Septoria nodorum): 99%
Cc1nn(C)c(Nc2c(F)cccc2F)c1-c1ccc(F)cc1F [compound 71],100,0,99,99,99,96,100,–
Cc1nn(C)c(Nc2ccc(Cl)cc2Cl)c1-c1ccc(F)cc1F [compound 67],100,0,97,100,64,0,100,–
"Cc1nn(C)c(Oc2ccc(C#N)cc2F)c1-c1ccc(F)cc1Br [Compound 79, 4-[[4-(2-bromo-4-fluorophenyl)-1,3-dimethyl-1H-pyrazol-5-yl]oxy]-3-fluorobenzonitrile]",–,–,–,–,–,–,–,"Test F rating (disease control), value marked * (Septoria tritici): 100* %; pest or weed control at 200 µg/mL [1]: 28%; pest or weed control at 200 µg/mL [2]: 100%; pest or weed control at 200 µg/mL (Botrytis cinerea): 99%; pest or weed control at 200 µg/mL (Alternaria solani): 99%; pest or weed control at 200 µg/mL [3]: 100%; pest or weed control at 200 µg/mL (Septoria nodorum): 100%"
"Cc1nn(C)c(Oc2c(F)cc(C#N)cc2F)c1-c1ccc(F)cc1Br [Compound 65, 4-[[4-(2-bromo-4-fluorophenyl)-1,3-dimethyl-1H-pyrazol-5-yl]oxy]-3,5-difluorobenzonitrile]",–,–,–,–,–,–,–,pest or weed control at 200 µg/mL (Septoria tritici): 100%; pest or weed control at 200 µg/mL [1]: 0%; pest or weed control at 200 µg/mL [2]: 100%; pest or weed control at 200 µg/mL (Botrytis cinerea): 100%; pest or weed control at 200 µg/mL (Alternaria solani): 99%; pest or weed control at 200 µg/mL [3]: 100%; pest or weed control at 200 µg/mL (Septoria nodorum): 99%
